Earlier results, collected in US10039775B2, “Preparation method for antitumor drug AP26113” (SUZHOU MIRACPHARMA TECHNOLOGY CO., LTD., priority 2015, dated 2018).

Assays:
[1] = molecular target: ALK (Homo sapiens, UniProt Q9UM73); settings: ratio versus crizotinib
[2] = system: crizotinib resistant ALK mutation; settings: nine identified crizotinib resistant ALK mutations
[3] = system: ALK positive nonsmall cell lung cancer; settings: clinical data; patients with ALK positive nonsmall cell lung cancer, including brain metastases patients

Sequence of ALK (Q9UM73 19-1620): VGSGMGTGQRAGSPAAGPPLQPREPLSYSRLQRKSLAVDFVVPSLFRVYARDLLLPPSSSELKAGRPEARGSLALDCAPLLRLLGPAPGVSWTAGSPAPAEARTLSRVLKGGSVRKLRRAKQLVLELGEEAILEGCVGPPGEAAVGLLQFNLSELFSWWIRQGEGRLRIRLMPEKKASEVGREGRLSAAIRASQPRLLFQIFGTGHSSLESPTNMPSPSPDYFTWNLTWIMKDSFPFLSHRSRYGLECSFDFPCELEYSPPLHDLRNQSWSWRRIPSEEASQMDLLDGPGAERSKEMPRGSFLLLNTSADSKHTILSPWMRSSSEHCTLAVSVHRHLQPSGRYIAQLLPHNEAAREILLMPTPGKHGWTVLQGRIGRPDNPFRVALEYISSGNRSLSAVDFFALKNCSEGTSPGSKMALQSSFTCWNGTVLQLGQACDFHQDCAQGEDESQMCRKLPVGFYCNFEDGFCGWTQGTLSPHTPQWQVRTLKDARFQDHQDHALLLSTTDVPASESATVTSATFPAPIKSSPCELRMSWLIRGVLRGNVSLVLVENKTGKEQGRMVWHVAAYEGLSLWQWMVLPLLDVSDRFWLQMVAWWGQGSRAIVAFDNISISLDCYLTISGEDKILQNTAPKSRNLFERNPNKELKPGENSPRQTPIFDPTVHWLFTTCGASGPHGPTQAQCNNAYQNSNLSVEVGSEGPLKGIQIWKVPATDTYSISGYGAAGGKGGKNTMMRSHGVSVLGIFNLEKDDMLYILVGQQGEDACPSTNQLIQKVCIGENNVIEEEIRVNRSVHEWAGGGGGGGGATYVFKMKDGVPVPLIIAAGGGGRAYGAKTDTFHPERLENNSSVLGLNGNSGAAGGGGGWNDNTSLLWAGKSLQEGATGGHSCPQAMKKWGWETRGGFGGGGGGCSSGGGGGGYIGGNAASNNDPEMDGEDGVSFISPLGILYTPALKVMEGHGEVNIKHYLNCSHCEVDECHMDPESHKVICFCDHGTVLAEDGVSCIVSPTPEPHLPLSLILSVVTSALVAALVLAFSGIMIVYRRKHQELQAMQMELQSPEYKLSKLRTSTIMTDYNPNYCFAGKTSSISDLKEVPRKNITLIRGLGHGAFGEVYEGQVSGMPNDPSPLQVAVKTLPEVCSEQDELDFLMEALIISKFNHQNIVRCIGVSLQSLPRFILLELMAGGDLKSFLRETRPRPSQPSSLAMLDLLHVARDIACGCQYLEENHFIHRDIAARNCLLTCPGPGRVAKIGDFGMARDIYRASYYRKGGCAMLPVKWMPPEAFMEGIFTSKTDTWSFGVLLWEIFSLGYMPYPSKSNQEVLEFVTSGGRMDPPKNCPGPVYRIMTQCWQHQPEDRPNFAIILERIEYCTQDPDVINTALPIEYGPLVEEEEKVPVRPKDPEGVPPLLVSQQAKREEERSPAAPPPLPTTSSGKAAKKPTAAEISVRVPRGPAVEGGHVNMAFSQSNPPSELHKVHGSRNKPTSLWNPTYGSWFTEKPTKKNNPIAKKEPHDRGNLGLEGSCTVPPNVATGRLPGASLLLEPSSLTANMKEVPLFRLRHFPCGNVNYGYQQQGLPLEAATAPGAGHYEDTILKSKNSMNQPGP

COc1cc(N2CCC(N(C)C)CC2)ccc1Nc1ncc(Cl)c(Nc2ccccc2P(C)(C)=O)n1 [AP26113, 5-chloro-N2-[4-[4-(dimethylamino)-1-piperidyl]-2-methoxyphenyl]-N4-[2-(dimethyl phosphitylate)phenyl]-2,4-diaminopyrimidine]
inhibitory activity to ALK relative to the inhibitor activity of crizotinib to ALK [1]: about 10 times | inhibition of all nine identified crizotinib resistant ALK mutation [2]: can be inhibited | anti-tumor activity on patients [3]: continuous anti-tumor activity
